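Following 48 hours of exposure in 96-well plates, responses at five concentrations were used to interpolate endpoints linearly. Abbreviation: GI50, concentration required for 50% inhibition of growth.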 Active and inactive are the calls of the source. Rule as the data show it: active = GI50 up to about 1.1 µM and inactive = higher.

Test in all cases: growth of human tumour cells (NCI), 48 h
Assay [1] deals with 786-0.
The subject of assay [2] is CCRF-CEM.
For assay [3], the system named is SNB-19.
Assay [4] concerns KM12.
In assay [5] the test system is Malme-3M.
The test system of assay [6] is NCI-H460.
In assay [7] the test system is MDA-MB-435.
The subject of assay [8] is SR.
Assay [9] has as its system SF-539.
Assay [10] concerns DU-145.
The subject of assay [11] is M14.
The test system of assay [12] is NCI-H226.
The test system of assay [13] is A549.
Assay [14] concerns HCT-116.
Assay [15] has as its system TK-10.
For assay [16], the system named is OVCAR-3.
Assay [17] relates to SW-620.
The subject of assay [18] is UACC-257.
Assay [19] deals with CAKI-1.
The subject of assay [20] is U-251.

For `C=C1CC2OC2(C(=O)O[C@H]2CCC3[C@@H]4CCC5=CC(=O)CC[C@]5(C)C4CC[C@@]32C)C1=O` (stereo not given in full), the GI50 in assay [1] was 2.04 µM (inactive); in assay [2] it was 0.804 µM (active); in [3], 18.7 µM (inactive); in assay [4], 12.6 µM (inactive); in assay [5] it was 6.56 µM (inactive); in assay [6], 11 µM (inactive). The GI50 in assay [7] is 12.7 µM (inactive); in assay [8], 0.805 µM (active); in [9] it was 9.33 µM (inactive); in assay [10] it was 17.8 µM (inactive); in assay [11], 7.23 µM (inactive); in [12] it was 22.9 µM (inactive). Also, the GI50 in [13] was 21.3 µM (inactive); in [14], 5.81 µM (inactive); in assay [15], 6.49 µM (inactive); in [16] it was 8.51 µM (inactive); in [17], 3.4 µM (inactive); in assay [18], 8.05 µM (inactive). Further, the figures for the GI50 in [19] and in assay [20] were 11.9 µM (inactive) and 8.97 µM (inactive), respectively.
Turning to `O=C1C=CC(=O)c2c1c1c(c3c2C2c4ccccc4C3c3ccccc32)C2c3ccccc3C1c1ccccc12`, the GI50 was 1.45 µM (inactive) in assay [1]; 0.368 µM (active) in assay [2]; 16.2 µM (inactive) in assay [3]; 12.7 µM (inactive) in [4]; 1.6 µM (inactive) in assay [5]; 13.2 µM (inactive) in assay [6]. Also, the GI50 is 1.75 µM (inactive) in assay [7]; 1.95 µM (inactive) in assay [8]; 5.15 µM (inactive) in assay [9]; 15.1 µM (inactive) in assay [10]; 1.7 µM (inactive) in assay [11]; 4.71 µM (inactive) in assay [12]. Besides, the GI50 was 8.69 µM (inactive) in assay [13]; 1.56 µM (inactive) in assay [14]; 1.87 µM (inactive) in assay [15]; 1.77 µM (inactive) in assay [16]; 0.914 µM (active) in [17]; 1.85 µM (inactive) in assay [18]. In addition, the GI50 was 1.73 µM (inactive) in assay [19] and 8.71 µM (inactive) in assay [20].
For the molecule `O=C(Nn1cnn2c(=O)c3ccccc3nc2c1=O)c1ccccc1`, the GI50 in assay [1], in [2], in [3], in assay [4], in assay [5] and in assay [6] was > 100 µM (inactive) each time. Besides, the GI50 in [7], in [8], in assay [9], in assay [10], in [11] and in [12] was > 100 µM (inactive) in each case. In addition, the GI50 in [13], in assay [14], in [15], in assay [16], in assay [17] and in assay [18] was > 100 µM (inactive) each time. In addition, the GI50 in assay [19] and in [20] was > 100 µM (inactive) throughout.
As to `OC1[C@@H]2[C@@H](O)CCCN2C[C@@H](O)[C@H]1O` (stereo not given in full), the GI50 in assay [1], in assay [2], in [3], in assay [4], in assay [5] and in assay [6] was > 100 µM (inactive) throughout. For the same molecule, the GI50 in assay [7], in assay [8], in [9], in [10], in assay [11] and in [12] was > 100 µM (inactive) each time. Further, the GI50 in assay [13], in [14], in assay [15], in [16], in assay [17] and in assay [18] was > 100 µM (inactive) throughout. Also, the GI50 in assay [19] and in assay [20] was > 100 µM (inactive) throughout.

The values are drawn from ChEMBL document CHEMBL1201862, “PubChem BioAssay data set” (2004).
